Assay results reported in patent US8318940B2, “Naphthyridin-2 (1 H)-one compounds useful as antibacterials” (Glaxo Group Limited, priority 2009, dated 2012).

system: Mycobacterium tuberculosis H37Rv; test: Mycobacterium tuberculosis H37Rv inhibition assay (MIC, resazurin); format: cell-based; details: ATCC 25618 / H37Rv, H37Rv strain (ATCC25618), Middlebrook 7H9, 37° C. six days, resazurin fluorescence after 48 hours

SMILES | MIC [µg/mL]
O=c1ccc2ncc(F)cc2n1CCN1CCC(NCc2cnc(CO)c(Cl)c2)CC1 [Example 1, 1-{2-[4-({[5-chloro-6-(hydroxymethyl)-3-pyridinyl]methyl}amino)-1-piperidinyl]ethyl}-7-fluoro-1,5-naphthyridin-2(1H)-one] | ≤ 0.3
Cl.O=c1ccc2ncc(F)cc2n1CCN1CCC(NCc2cnc(CO)c(Cl)c2)CC1 [Example 2, 1-{2-[4-({[5-chloro-6-(hydroxymethyl)-3-pyridinyl]methyl}amino)-1-piperidinyl]ethyl}-7-fluoro-1,5-naphthyridin-2(1H)-one hydrochloride] | ≤ 0.3
O=c1ccc2ncc(F)cc2n1CCN1CC[C@H](NCc2cnc(CO)c(Cl)c2)[C@H](O)C1 [Example 3, 1-{2-[(3R,4S)-4-({[5-chloro-6-(hydroxymethyl)-3-pyridinyl]methyl}amino)-3-hydroxy-1-piperidinyl]ethyl}-7-fluoro-1,5-naphthyridin-2(1H)-one] | ≤ 0.3
Cl.O=c1ccc2ncc(F)cc2n1CCN1CC[C@H](NCc2cnc(CO)c(Cl)c2)[C@H](O)C1 [Example 4, 1-{2-[(3R,4S)-4-({[5-chloro-6-(hydroxymethyl)-3-pyridinyl]methyl}amino)-3-hydroxy-1-piperidinyl]ethyl}-7-fluoro-1,5-naphthyridin-2(1H)-one hydrochloride] | ≤ 0.3
COc1cnc2ccc(=O)n(CCN3CCC(NCc4cnc(CO)c(Cl)c4)CC3)c2c1 [Example 5, 1-{2-[4-({[5-chloro-6-(hydroxymethyl)-3-pyridinyl]methyl}amino)-1-piperidinyl]ethyl}-7-(methyloxy)-1,5-naphthyridin-2(1H)-one] | ≤ 0.3
O=c1ccc2ncc(F)cc2n1CCN1CCC(NCc2cnc(CO)c(Br)c2)CC1 [Example 6, 1-{2-[4-({[5-bromo-6-(hydroxymethyl)-3-pyridinyl]methyl}amino)-1-piperidinyl]ethyl}-7-fluoro-1,5-naphthyridin-2(1H)-one] | ≤ 0.3
